SMILES strings stand for the structures. A value given as a limit tells only on which side of the number the result lay.

In this test the test system is HIF-2α HIS TAG-PASB Domain. Put plainly: HIF-2α Scintillation Proximity Assay (SPA). It counts as binding. Here is the method:
The percent inhibition was determined and IC50 values were calculated using the Dotmatics system based on the following equation: % inhibition=[(high control−sample)/(high control−low control)]×100.
`CS(=O)(=O)N=S(=O)(CF)c1ccc(Oc2cc(F)cc(C#N)c2)c2c1[C@H](O)C(F)(F)C2` (stereo partly drawn) [Compound 284, N—(((S)-7-(3-cyano-5-fluorophenoxy)-2,2-difluoro-3-hydroxy-2,3-dihydro-1H-inden-4-yl)(fluoromethyl)(oxo)-λ^6-sulfanylidene)methanesulfonamide] returned a 50% inhibitory concentration (IC50) of 5600 nM. In other words, the single-digit micromolar range.
For `N#Cc1cc(F)cc(Oc2ccc(S(=O)(=O)C(F)(F)F)c3c2CC(F)(F)[C@H]3NCCO)c1` [Compound 291, 3-[(1S)-2,2-difluoro-1-(2-hydroxyethylamino)-7-(trifluoromethylsulfonyl)indan-4-yl]oxy-5-fluoro-benzonitrile], the IC50 worked out at 4900 nM. This IC50 and that of the compound before are within 1.5-fold of each other.
Under `CS(=O)(=O)c1ccc(Oc2cc(F)cc(C#N)c2)c2c1[C@H](O)C(F)(F)[C@H]2F` [Compound 293, 3-fluoro-5-[(1S,3S)-2,2,3-trifluoro-1-hydroxy-7-methylsulfonyl-indan-4-yl]oxy-benzonitrile] stands 720 nM; under `CS(=O)(=O)c1ccc(Oc2cc(F)cc(C#N)c2)c2c1[C@H](O)C[C@@H]2F` [Compound 295, 3-fluoro-5-[(1R,3S)-3-fluoro-1-hydroxy-7-methylsulfonyl-indan-4-yl]oxy-benzonitrile], 230 nM.
`CS(=O)(=O)c1ccc(Oc2cc(F)cc(C#N)c2)c2c1[C@H](O)[C@H](F)[C@@H]2O` [Compound 296, 3-fluoro-5-[(1S,2R,3R)-2-fluoro-1,3-dihydroxy-7-methylsulfonyl-indan-4-yl]oxy-benzonitrile] returned an IC50 of 1300 nM.
Under `N#CN=S(=O)(c1ccc(Oc2cc(F)cc(C#N)c2)c2c1[C@H](O)[C@H](F)C2)C(F)F` (stereo partly drawn) [Compound 297, N-(((2R,3S)-7-(3-cyano-5-fluorophenoxy)-2-fluoro-3-hydroxy-2,3-dihydro-1H-inden-4-yl)(difluoromethyl)(oxo)-λ^6-sulfanylidene)cyanamide] stands 12400 nM.
With `C[C@]1(F)Cc2c(Oc3cc(F)cc(C#N)c3)ccc(S(C)(=O)=O)c2[C@@H]1O` [Compound 298, 3-fluoro-5-(((1S,2S)-2-fluoro-1-hydroxy-2-methyl-7-(methylsulfonyl)-2,3-dihydro-1H-inden-4-yl)oxy)benzonitrile], the IC50 came to 16100 nM.
Under `N#CN=S(=O)(c1ccc(Oc2cc(F)cc(C#N)c2)c2c1[C@H](O)[C@H](F)C2)C(F)F` (stereo partly drawn) [Compound 299, N-(((2R,3S)-7-(3-cyano-5-fluorophenoxy)-2-fluoro-3-hydroxy-2,3-dihydro-1H-inden-4-yl)(difluoromethyl)(oxo)-λ^6-sulfanylidene)cyanamide] stands 16100 nM; under `C[C@@]1(F)Cc2c(Oc3cc(F)cc(C#N)c3)ccc(S(C)(=O)=O)c2[C@@H]1O` [Compound 300], 2030 nM.
Turning to `C[C@@H]1Cc2c(Oc3cc(F)cc(C#N)c3)ccc(S(C)(=O)=O)c2[C@@H]1O` [Compound 301, 3-fluoro-5-(((1R,2R)-1-hydroxy-2-methyl-7-(methylsulfonyl)-2,3-dihydro-1H-inden-4-yl)oxy)benzonitrile], half-maximal inhibition (IC50) required 1900 nM.
For `CS(=O)(=O)c1ccc(Oc2cc(F)cc(C#N)c2)c2c1[C@H](O)C(F)(F)[C@H]2O` [Compound 311, 3-[(1S,3S)-2,2-difluoro-1,3-dihydroxy-7-methylsulfonyl-indan-4-yl]oxy-5-fluoro-benzonitrile] the value was 8700 nM.
Under `CS(=O)(=O)c1ccc(Oc2cc(F)cc(C#N)c2)c2c1[C@H](O)C(F)(F)[C@@H]2O` [Compound 312, 3-[(1S,3R)-2,2-difluoro-1,3-dihydroxy-7-methylsulfonyl-indan-4-yl]oxy-5-fluoro-benzonitrile] stands 150 nM; under `CS(=O)(=O)c1ccc(Oc2cncc(C#N)c2)c2c1[C@H](O)[C@H](F)C2` [Compound 313, 5-(((1S,2R)-2-fluoro-1-hydroxy-7-(methylsulfonyl)-2,3-dihydro-1H-inden-4-yl)oxy)nicotinonitrile], 1800 nM.
For `CS(=O)(=NC#N)c1ccc(Oc2cc(F)cc(C#N)c2)c2c1[C@H](O)C(F)(F)[C@H]2F` (stereo partly drawn) [Compound 318, [[(1S,3S)-7-(3-cyano-5-fluoro-phenoxy)-1,2,2-trifluoro-3-hydroxy-indan-4-yl]-methyl-oxo-λ^6-sulfanylidene]cyanamide] the value was 2380 nM; for `CS(=O)(=O)c1ccc(Oc2cncc(Br)c2)c2c1C(=O)C(F)(F)C2` [Compound 323, 4-((5-Bromopyridin-3-yl)oxy)-2,2-difluoro-7-(methylsulfonyl)-2,3-dihydro-1H-inden-1-one], 5250 nM; for `CS(=O)(=O)c1ccc(Oc2cncc(Br)c2)c2c1[C@H](O)C(F)(F)C2` [Compound 324, (S)-4-((5-Bromopyridin-3-yl)oxy)-2,2-difluoro-7-(methylsulfonyl)-2,3-dihydro-1H-inden-1-ol], 54 nM.
The compound `CS(=O)(=O)c1ccc(Oc2cncc(C#N)c2)c2c1[C@H](O)C(F)(F)C2` [Compound 325, (S)-5-((2,2-Difluoro-1-hydroxy-7-(methylsulfonyl)-2,3-dihydro-1H-inden-4-yl)oxy)nicotinonitrile] yielded an IC50 of 180 nM.
Under `CS(=O)(=O)c1ccc(Oc2cncc(Br)c2)c2c1[C@H](O)[C@H](F)C2` [Compound 326, (1S,2R)-4-((5-Bromopyridin-3-yl)oxy)-2-fluoro-7-(methylsulfonyl)-2,3-dihydro-1H-inden-1-ol] stands 1280 nM.
Under `CS(=O)(=O)c1ccc(Oc2ccc(F)c(C#N)c2)c2c1[C@H](O)C(F)(F)[C@@H]2F` [Compound 327, 2-Fluoro-5-(((1S,3R)-2,2,3-trifluoro-1-hydroxy-7-(methylsulfonyl)-2,3-dihydro-1H-inden-4-yl)oxy)benzonitrile] stands 28 nM; under `CS(=O)(=O)c1ccc(Oc2cncc(Br)c2)c2c1[C@H](O)[C@H](F)[C@@H]2F` [Compound 328, (1S,2S,3R)-4-((5-Bromopyridin-3-yl)oxy)-2,3-difluoro-7-(methylsulfonyl)-2,3-dihydro-1H-inden-1-ol], 32 nM; under `CS(=O)(=O)c1ccc(Oc2cncc(F)c2)c2c1[C@H](O)C(F)(F)[C@@H]2F` [Compound 329, (1S,3R)-2,2,3-trifluoro-4-((5-fluoropyridin-3-yl)oxy)-7-(methylsulfonyl)-2,3-dihydro-1H-inden-1-ol], under 5 nM.
For `CS(=O)(=O)c1ccc(Oc2cncc(F)c2)c2c1[C@H](O)C(F)(F)[C@H]2F` [Compound 330, (1S,3S)-2,2,3-trifluoro-4-((5-fluoropyridin-3-yl)oxy)-7-(methylsulfonyl)-2,3-dihydro-1H-inden-1-ol] the value was 2090 nM; for `CS(=O)(=O)c1ccc(Oc2cncc(Cl)c2)c2c1[C@H](O)C(F)(F)[C@@H]2F` [Compound 331, (1S,3R)-4-((5-chloropyridin-3-yl)oxy)-2,2,3-trifluoro-7-(methylsulfonyl)-2,3-dihydro-1H-inden-1-ol], 7 nM.
In turn, `CS(=O)(=O)c1ccc(Oc2cncc(Cl)c2)c2c1[C@H](O)C(F)(F)[C@H]2F` [Compound 332, (1S,3S)-4-((5-chloropyridin-3-yl)oxy)-2,2,3-trifluoro-7-(methylsulfonyl)-2,3-dihydro-1H-inden-1-ol] registered an IC50 of 2330 nM. Against the preceding compound, the IC50 is about 330-fold higher.
For `CS(=O)(=O)c1ccc(Oc2cncc(C#N)c2)c2c1[C@H](O)[C@H](F)[C@@H]2F` [Compound 333, 5-(((1S,2S,3R)-2,3-difluoro-1-hydroxy-7-(methylsulfonyl)-2,3-dihydro-1H-inden-4-yl)oxy)nicotinonitrile] the value was 74 nM.
Under `N#Cc1cc(F)cc(Oc2ccc(S(N)(=O)=O)c3c2C[C@@H](F)[C@H]3O)c1` [Compound 334, (2R,3S)-7-(3-cyano-5-fluoro-phenoxy)-2-fluoro-3-hydroxy-indane-4-sulfonamide] stands 73 nM.
As for `N#Cc1cc(F)cc(Oc2ccc(S(N)(=O)=O)c3c2[C@@H](O)C(F)(F)[C@H]3O)c1` [Compound 337, (1R,3S)-7-(3-cyano-5-fluoro-phenoxy)-2,2-difluoro-1,3-dihydroxy-indane-4-sulfonamide], the IC50 worked out at 3670 nM. This IC50 lies about 50-fold higher than the previous one.
Under `N#Cc1cncc(Oc2ccc(S(N)(=O)=O)c3c2[C@@H](F)C(F)(F)[C@H]3O)c1` [Compound 340, (1R,3S)-7-[(5-cyano-3-pyridyl)oxy]-1,2,2-trifluoro-3-hydroxy-indane-4-sulfonamide] stands 24 nM.
For `NS(=O)(=O)c1ccc(Oc2cncc(F)c2)c2c1[C@H](O)C(F)(F)[C@@H]2F` [Compound 341, (1R,3S)-1,2,2-trifluoro-7-[(5-fluoro-3-pyridyl)oxy]-3-hydroxy-indane-4-sulfonamide] the value was 18 nM.
Turning to `CS(=O)(=O)c1ccc(Oc2cncc(C#N)c2)c2c1[C@H](O)C(F)(F)[C@@H]2F` [Compound 342, 5-(((1S,3R)-2,2,3-trifluoro-1-hydroxy-7-(methylsulfonyl)-2,3-dihydro-1H-inden-4-yl)oxy)nicotinonitrile], it took 40 nM to reach half-maximal inhibition (IC50).
For `CS(=O)(=O)c1ccc(Oc2cncc(C#N)c2)c2c1[C@H](O)C(F)(F)[C@H]2F` [Compound 343, 5-(((1S,3S)-2,2,3-trifluoro-1-hydroxy-7-(methylsulfonyl)-2,3-dihydro-1H-inden-4-yl)oxy)nicotinonitrile] the value was 23900 nM; for `N#Cc1cncc(Oc2ccc(S(=O)(=O)CF)c3c2[C@@H](F)C(F)(F)[C@H]3O)c1` [Compound 344, 5-(((1S,3R)-2,2,3-trifluoro-7-((fluoromethyl)sulfonyl)-1-hydroxy-2,3-dihydro-1H-inden-4-yl)oxy)nicotinonitrile], 6.7 nM; for `N#Cc1cncc(Oc2ccc(S(=O)(=O)CF)c3c2[C@H](F)C(F)(F)[C@H]3O)c1` [Compound 345, 5-(((1S,3S)-2,2,3-trifluoro-7-((fluoromethyl)sulfonyl)-1-hydroxy-2,3-dihydro-1H-inden-4-yl)oxy)nicotinonitrile], 2180 nM.
Under `CS(=O)(=O)c1ccc(Oc2cc(F)cc(C#N)c2)c2c1[C@H](N)C(F)(F)[C@@H]2F` [Compound 346] stands 515 nM; under `N#Cc1cncc(Oc2ccc(S(=O)(=O)C(F)F)c3c2CC(F)(F)[C@H]3O)c1` [Example 27, (S)-5-((7-((Difluoromethyl)sulfonyl)-2,2-difluoro-1-hydroxy-2,3-dihydro-1H-inden-4-yl)oxy)nicotinonitrile], 250 nM.

Usually IC50 stands for the point on the concentration scale where inhibition reaches its midpoint.

The record behind these values is patent US9896418B2, “Aryl ethers and uses thereof” (Peloton Therapeutics, Inc., priority 2013, dated 2018).
